pIC50: −log10 of the molar value.
Test system: O. ochengi adult males
Experiment: O. ochengi adult male motility assay
Assay type: cell-based
Details: Onchocerca ochengi, 120 h; read-out: O. ochengi Adult Males Inhibition of Motility Day 5 IC50
Source text: As humans are the only hosts for O. volvulus which are unavailable for screening, drug discovery relies on the surrogate filarial parasites Brugia spp. and cattle Onchocerca spp. Prioritized compounds from the Brugia worm screens were further tested with female and male adult O. ochengi as well as O. ochengi and L. loa mf.
For these assays, O. ochengi adults were extracted from the subcutaneous nodules of infected cow skins purchased from the local slaughterhouse (Douala, Littoral Region, Cameroon) and incubated in 4 mL complete culture media comprised of RPMI-1640 (Sigma-Aldrich), 5% newborn calf serum, 200 units/mL penicillin, 200 μg/mL streptomycin and 2.5 μg/mL amphotericin B (Sigma-Aldrich) in 12-well plates overnight to validate sterility prior to the assays. Four to eight O. ochengi adult masses were treated individually the following day with a serial dilution of each compound, and controls were treated with 1% DMSO. While in culture, the male worms normally egress from the nodules into the surrounding media and thus can be monitored in parallel for motility. The O. ochengi adult masses were incubated at 37 °C with 5% CO2 for the duration of the assay. Male motility within each well was visually scored every day and over 5 days after compound addition, and female viability within the nodules was assessed by MTT after 7 days as previously described. The O. ochengi adult masses containing female worms were individually placed in wells of a 48-well plate with 0.5 mL of 0.5 mg/mL MTT in PBS and incubated at 37 °C for 30 min. Female viability was visually rated by the degree of formazan production (live worms have blue coloration) in the female worm within the treated nodule versus control worm masses. […] Prism 4.0 for Windows was used to calculate IC50s.

Cc1ccc2c(ccc(/C=C/c3c(C)nn(-c4ccccc4)c3C)[n+]2C)c1.[I-] [Analog 06, 2-[(E)-2-(3,5-dimethyl-1-phenyl-1H-pyrazol-4-yl)ethenyl]-1,6-dimethylquinolin-1-ium iodide]
pIC50: 5.56

— PMC8880385 (Pharmaceuticals, 2022)
